Results as given in patent publication US11547957B2, “Method of maintaining narrow residence time distributions in continuous flow systems” (EMD Millipore Corporation, priority 2017, dated 2023).

System: Phi6 bacteriophage virus
Test: Static detergent-based virus inactivation, infectivity by plaque assay
Type: cell-based
Settings: mAb 15 mg/mL, 22-25° C.; for Time to Complete Inactivation: Phi6
Protocol: The purpose of this study was to examine detergent-based virus inactivation kinetics. In this representative experiment, two different concentrations (0.1% and 1.0% v/v) of a detergent, Triton X-100 were used to inactivate a bacteriophage virus, Phi6. The objective was to determine the exposure time required for complete inactivation.
A monoclonal antibody was purified by standard Protein A chromatography and prepared at a concentration of 15 mg/mL. The virus spike was added and vortexed to ensure a well-mixed system. The Phi6 target spike level was 1×10^8 pfu/mL. Detergent was added to reach the desired concentrations of 0.1% and 1.0% v/v. At various time points, a sample was removed and quenched by adding it to buffer at a 1:1000 dilution ratio. The tubes were vortexed after the detergent addition. These experiments were carried out at room temperature, 22-25° C. Control samples at the initial and final time points were also analyzed. The control samples were diluted similarly to the actual samples using the background buffer.

Triton X-100
≥5.2: Phi6 LRV (0.1% v/v Triton X-100, inactivation time 1 min) | Phi6 LRV (0.1% v/v Triton X-100, inactivation time 2 min) | Phi6 LRV (0.1% v/v Triton X-100, inactivation time 3 min) | Phi6 LRV (0.1% v/v Triton X-100, inactivation time 4 min) | Phi6 LRV (0.1% v/v Triton X-100, inactivation time 5 min) | Phi6 LRV (0.1% v/v Triton X-100, inactivation time 15 min) | Phi6 LRV (0.1% v/v Triton X-100, inactivation time 30 min)
≥6.2: Phi6 LRV (1.0% v/v Triton X-100, inactivation time 1 min) | Phi6 LRV (1.0% v/v Triton X-100, inactivation time 2 min) | Phi6 LRV (1.0% v/v Triton X-100, inactivation time 3 min) | Phi6 LRV (1.0% v/v Triton X-100, inactivation time 4 min) | Phi6 LRV (1.0% v/v Triton X-100, inactivation time 5 min) | Phi6 LRV (1.0% v/v Triton X-100, inactivation time 15 min) | Phi6 LRV (1.0% v/v Triton X-100, inactivation time 30 min)
≤ 1 min: Time to Complete Inactivation (0.1% v/v Triton X-100, listed as Triton X100) | Time to Complete Inactivation (1.0% v/v Triton X-100, listed as Triton X100)
≤1 min: Time to Complete Inactivation (0.1% v/v Triton X-100) | Time to Complete Inactivation (1.0% v/v Triton X-100)
